# Reference: patent US11554188B2, “Anti-viral dry cleaning process” ([…], LLC, priority 2020, dated 2023)
# Where “and” joins values, the source holds several entries; their conditions need not be identical. Equal values may be shown once. Read-outs that look alike come from different tables or passages of the source.
# Columns and labels:
# Type in all cases: cell-based
# [1] = tested on: SARS-CoV-2 strain USA-WA1/2020; details: for Averaged Test Sample Percent Log Reduction to Averaged Virus Controls: averaged over 15, 30, 45 min
# [2] = tested on: SARS-CoV-2 strain USA-WA1/2020; details: Silicone wash, and spin cycle, time 45 min
# [3] = tested on: SARS-CoV-2 strain USA-WA1/2020; assay: Drying cycle and washing cycle combined test results (complete dry cleaning process); details: for Averaged Test Sample Percent Log Reduction of complete dry cleaning process: wash/spin results combined with heat, liquid and vapor results
# Description: Data shown in Table 2 represents the individual dry cleaning process percent log reduction to the control samples for each coupon set at each process time, and averaged percent reduction of each process on viral deactivation. The silicone wash and spin rinse tests were combined with the heat, silicone liquid, and vapor exposure process results to define the overall percent viral reduction of the complete dry cleaning process. A plot showing the percent log reduction efficacy of each of the simulated dry cleaning processes and the total process in deactivating SARS-CoV-2 infected wool blend fabric material is shown in FIG. 2.
# This testing was conducted to provide an accurate simulation of patented dry cleaning process in a laboratory environment.
# It should be noted, that in one simulation of the drying cycle, the combination of heat, vapor, and liquid condition produced a percent log reduction to virus control of 98.00%.
# [4] = Heat + Liquid + Vapor, 70° C., 15 min
# [5] = Heat + Liquid + Vapor, 70° C., 30 min
# [6] = Heat + Liquid + Vapor, 70° C., 45 min
# [7] = Heat + Silicone Liquid, 70° C., 15 min
# [8] = Heat + Silicone Liquid, 70° C., 30 min
# [9] = Heat + Silicone Liquid, 70° C., 45 min
# [10] = Heat + Silicone Vapor, 70° C., 15 min
# [11] = Heat + Silicone Vapor, 70° C., 30 min
# [12] = Heat + Silicone Vapor, 70° C., 45 min
# [13] = samples G5-15 (condition cell blank; heat + liquid + vapor per Table 2), 15 min
# [14] = samples G5-30 (condition cell blank; heat + liquid + vapor per Table 2), 30 min
# [15] = samples G5-45 (condition cell blank; heat + liquid + vapor per Table 2), 45 min
# [16] = Complete cycle - silicone wash, spin, heat and vapor, time 45 min
# [17] = Silicone wash, and spin cycle, time 45 min
compound,measurement,setting,value
"C[Si]1(C)O[Si](C)(C)O[Si](C)(C)O[Si](C)(C)O[Si](C)(C)O1 [D5, decamethylcyclopentasiloxane]",TCID50 (individual sample),"[1]; D5 Liquid Only Control, 45 min",31.62
same,Avg TCID50,"[1]; Heat & D5 Liquid, 15 min",789.8
same,TCID50 (individual sample),"[1]; Heat & D5 Liquid, 15 min",316.2 and 794.3 and 1258.9254
same,Avg TCID50,"[1]; Heat & D5 Liquid, 30 min",1125
same,TCID50 (individual sample),"[1]; Heat & D5 Liquid, 30 min",879.9254 and 501.2 and 1995.2623
same,Avg TCID50,"[1]; Heat & D5 Liquid, 45 min",1590
same,TCID50 (individual sample),"[1]; Heat & D5 Liquid, 45 min",1258.9254 and 1415.1212 and 2096.18
same,Avg TCID50,"[1]; Heat & D5 Vapor, 15 min",3389.8041
same,TCID50 (individual sample),"[1]; Heat & D5 Vapor, 15 min",1995.2623 and 5011.8723 and 3162.2777
same,Avg TCID50,"[1]; Heat & D5 Vapor, 30 min",2510
same,TCID50 (individual sample),"[1]; Heat & D5 Vapor, 30 min",5011.8723 and 1258.9254 (2×)
same,Avg TCID50,"[1]; Heat & D5 Vapor, 45 min",2983
same,TCID50 (individual sample),"[1]; Heat & D5 Vapor, 45 min",3162.2777 and 3690.622 and 2096.18
same,Average of Test Replicates Log10 TCID50,[1]; [4],1.98
same,Average of Test Replicates TCID50,[1]; [4],94.92
same,Log10 Reduction to virus control,[1]; [4],1.70
same,Percent Log Reduction to Virus Control,[1]; [4],98.00%
same,Percent Log Reduction to Virus Control,"[1]; Heat + Liquid + Vapor, 70° C., 15 min, listed as Silicone",98.00%
same,Average of Test Replicates Log10 TCID50,[1]; [5],2.14
same,Average of Test Replicates TCID50,[1]; [5],138.31
same,Log10 Reduction to virus control,[1]; [5],1.54
same,Percent Log Reduction to Virus Control,[1]; [5],97.09%
same,Average of Test Replicates Log10 TCID50,[1]; [6],2.37
same,Average of Test Replicates TCID50,[1]; [6],232.01
same,Log10 Reduction to virus control,[1]; [6],1.31
same,Percent Log Reduction to Virus Control,[1]; [6],95.12%
same,Averaged Test Sample Percent Log Reduction to Averaged Virus Controls,"[1]; Heat + Liquid + Vapor, 70° C.",approximately 96.7%
same,Averaged Test Sample Percent Log Reduction to Averaged Virus Controls,"[1]; Heat + Liquid + Vapor, 70° C., listed as Silicone",96.74%
same,Average of Test Replicates Log10 TCID50,[1]; [7],2.90
same,Average of Test Replicates TCID50,[1]; [7],789.83
same,Log10 Reduction to virus control,[1]; [7],0.78
same,Percent Log Reduction to Virus Control,[1]; [7],83.39%
same,Average of Test Replicates Log10 TCID50,[1]; [8],3.05
same,Average of Test Replicates TCID50,[1]; [8],1125.46
same,Log10 Reduction to virus control,[1]; [8],0.63
same,Percent Log Reduction to Virus Control,[1]; [8],76.34%
same,Average of Test Replicates Log10 TCID50,[1]; [9],3.20
same,Average of Test Replicates TCID50,[1]; [9],1590.08
same,Log10 Reduction to virus control,[1]; [9],0.48
same,Percent Log Reduction to Virus Control,[1]; [9],66.57%
same,Averaged Test Sample Percent Log Reduction to Averaged Virus Controls,"[1]; Heat + Silicone Liquid, 70° C.",approximately 75.4%
same,Averaged Test Sample Percent Log Reduction to Averaged Virus Controls,"[1]; Heat + Silicone Liquid, 70° C., listed as Silicone",75.43%
same,Average of Test Replicates Log10 TCID50,[1]; [10],3.53
same,Average of Test Replicates TCID50,[1]; [10],3389.80
same,Log10 Reduction to virus control,[1]; [10],0.15
same,Percent Log Reduction to Virus Control,[1]; [10],28.72%
same,Average of Test Replicates Log10 TCID50,[1]; [11],3.40
same,Average of Test Replicates TCID50,[1]; [11],2509.91
same,Log10 Reduction to virus control,[1]; [11],0.28
same,Percent Log Reduction to Virus Control,[1]; [11],47.23%
same,Average of Test Replicates Log10 TCID50,[1]; [12],3.47
same,Average of Test Replicates TCID50,[1]; [12],2983.03
same,Log10 Reduction to virus control,[1]; [12],0.20
same,Percent Log Reduction to Virus Control,[1]; [12],37.28%
same,Averaged Test Sample Percent Log Reduction to Averaged Virus Controls,"[1]; Heat + Silicone Vapor, 70° C.",37.74%
same,Average of Test Replicates Log10 TCID50,"[1]; Silicone Liquid Control, room temperature (23° C.), 45 min",1.50
same,Average of Test Replicates TCID50,"[1]; Silicone Liquid Control, room temperature (23° C.), 45 min, wool blend coupons",31.62
same,Avg TCID50,[1]; [13],91.92
same,TCID50 (individual sample),[1]; [13],79.43 (2×) and 125.9
same,Avg TCID50,[1]; [14],138.3
same,TCID50 (individual sample),[1]; [14],209.618 and 79.43 and 125.9
same,Avg TCID50,[1]; [15],232.1
same,TCID50 (individual sample),[1]; [15],125.9 (2×) and 444.2
same,Average of Test Replicates TCID50,"[2]; 89 mL, 35 RPM 16 min, spin 500 rpm 4 min",35138.40
same,Average of Test Replicates Log10 TCID50,[2],4.54
same,Averaged Test Sample Percent Log Reduction of complete dry cleaning process,[2],56.18%
same,Log10 Reduction to virus control,[2],0.36
same,Percent Log Reduction to Virus Control,[2],56.18%
same,Percent Log Reduction to Virus Control,[2]; listed as Silicone,56.18%
same,Average of Test Replicates Log10 TCID50,[3]; [16],4.54
same,Average of Test Replicates TCID50,[3]; [16],35138.40
same,Averaged Test Sample Percent Log Reduction of complete dry cleaning process,"[3]; Complete cycle - silicone wash, spin, heat and vapor",approximately 98.6%
same,Averaged Test Sample Percent Log Reduction of complete dry cleaning process,"[3]; Complete cycle - silicone wash, spin, heat and vapor, listed as Silicone",98.57%
same,Log10 Reduction to virus control,[3]; [17],0.36
same,Percent Log Reduction to Virus Control,[3]; [17],56.18%
same,optimized calculated log reduction to the average virus controls,"[3]; serial combination of 56.18% wash cycle reduction and 98.00% drying cycle reduction (heat, vapor, liquid)",99.12%
